In EP3436445B1, “HISTONE DEMETHYLASE INHIBITORS” (Celgene Quanticel Research, Inc., priority 2016, dated 2017):

Key:
[1] = target: T1, Jarid1B (Homo sapiens, UniProt Q9UGL1); test: Jarid1B in vitro enzyme inhibition assay (TR-FRET); type: biochemical; details: Table 5; 0.8 nM Jarid1B, H3K4me3-biotin labeled peptide; read-out: JARID1B IC5
T1 construct: purchased BPS Bioscience (or custom made by MolecularThroughput) 50121
T1 sequence (Q9UGL1 2-751): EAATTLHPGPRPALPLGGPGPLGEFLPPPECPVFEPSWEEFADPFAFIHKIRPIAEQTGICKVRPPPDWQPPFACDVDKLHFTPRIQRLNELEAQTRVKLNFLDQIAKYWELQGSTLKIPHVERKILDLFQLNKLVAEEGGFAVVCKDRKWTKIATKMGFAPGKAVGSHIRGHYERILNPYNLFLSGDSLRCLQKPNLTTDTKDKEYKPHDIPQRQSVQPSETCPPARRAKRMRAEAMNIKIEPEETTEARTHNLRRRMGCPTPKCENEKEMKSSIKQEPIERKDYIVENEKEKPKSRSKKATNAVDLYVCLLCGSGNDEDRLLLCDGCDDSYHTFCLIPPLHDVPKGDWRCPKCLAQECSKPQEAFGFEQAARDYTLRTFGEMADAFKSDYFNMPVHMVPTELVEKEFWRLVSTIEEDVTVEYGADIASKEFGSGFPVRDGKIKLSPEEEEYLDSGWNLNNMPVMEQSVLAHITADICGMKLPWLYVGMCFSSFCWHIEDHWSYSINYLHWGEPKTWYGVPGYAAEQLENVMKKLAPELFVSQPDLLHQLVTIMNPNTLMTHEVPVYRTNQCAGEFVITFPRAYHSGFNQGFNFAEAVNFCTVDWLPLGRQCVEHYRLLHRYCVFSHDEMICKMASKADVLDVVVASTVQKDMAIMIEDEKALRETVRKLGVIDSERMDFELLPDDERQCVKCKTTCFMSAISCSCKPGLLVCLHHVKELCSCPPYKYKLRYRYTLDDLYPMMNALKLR
Description: (§1) This assay determines the ability of a test compound to inhibit Jarid1B, JMJD2C and JMJD3 demethylase activity. Baculovirus expressed Jarid1B (GenBank Accession #NM-006618, AA 2-751) was purchased from BPS Bioscience (Cat #50121) or custom made by MolecularThroughput. Baculovirus expressed JMJD2C (GenBank Accession #BC143571, AA 2-372) was purchased from BPS Bioscience (Cat#50105). Baculovirus expressed JMJD3 (GenBank Accession #NM-001080424, AA1043-end) was purchased from BPS Bioscience (Cat#50115).
The ability of test compounds to inhibit the activity of Jarid1B was determined in 384-well plate format under the following reaction conditions: 0.8 nM Jarid1B, 300 nM H3K4me3-biotin labeled peptide (Anaspec cat #64357), 2 µM alpha-ketoglutaric acid in assay buffer of 50 mM HEPES, pH7.3, 0.005% Brij35, 0.5 mM TCEP, 0.2 mg/ml BSA, 50 µM sodium L-ascorbate, and 2 µM ammonium iron(II) sulfate. Reaction product was determined quantitatively by TR-FRET after the addition of detection reagent Phycolink Streptavidin-allophycocyanin (Prozyme) and Europium-anti-mono-or di-methylated histone H3 lysine 4 (H3K4me1-2) antibody (PerkinElmer) in the presence of 5 mM EDTA in LANCE detection buffer (PerkinElmer) at a final concentration of 25 nM and 1 nM, respectively.
(§2) The assay reaction was initiated by the following: 2 µl of the mixture of 900 nM H3K4me3-biotin labeled peptide and 6 µM alpha-ketoglutaric acid with 2 µl of 11-point serial diluted inhibitor in 3% DMSO was added to each well of the plate, followed by the addition of 2 µl of 2.4 nM Jarid1B to initiate the reaction. The reaction mixture was incubated at room temperature for 30 minutes, and terminated by the addition of 6 µl of 5 mM EDTA in LANCE detection buffer containing 50 nM Phycolink Streptavidin-allophycocyanin and 2 nM Europium-anti-H3K4me1-2 antibody. Plates were read by EnVisionMultilabel Reader in TR-FRET mode (excitation at 320 nm, emission at 615 nm and 665 nm) after 1 hour incubation at room temperature. A ratio was calculated (665/615) for each well and fitted to determine inhibition constant (IC50).

[2] = target: T2, JMJD2C (Homo sapiens, UniProt Q9H3R0); test: JMJD2C in vitro enzyme inhibition assay (TR-FRET); type: biochemical; details: Table 5; 0.3 nM JMJD2C, H3K9me3-biotin labeled peptide
T2 construct: purchased BPS Bioscience 50105
T2 sequence (Q9H3R0 2-372): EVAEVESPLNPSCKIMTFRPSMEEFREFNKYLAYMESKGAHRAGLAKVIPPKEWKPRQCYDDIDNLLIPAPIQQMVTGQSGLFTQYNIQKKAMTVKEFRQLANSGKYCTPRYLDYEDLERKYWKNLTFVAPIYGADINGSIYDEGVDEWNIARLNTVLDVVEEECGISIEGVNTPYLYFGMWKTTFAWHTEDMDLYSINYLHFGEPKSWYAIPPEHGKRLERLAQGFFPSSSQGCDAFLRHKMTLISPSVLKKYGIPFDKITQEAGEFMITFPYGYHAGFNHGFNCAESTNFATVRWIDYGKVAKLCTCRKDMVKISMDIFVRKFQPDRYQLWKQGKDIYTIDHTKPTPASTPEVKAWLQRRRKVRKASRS
Description: as §1
The ability of test compounds to inhibit the activity of JMJD2C was determined in 384-well plate format under the following reaction conditions: 0.3 nM JMJD2C, 300 nM H3K9me3-biotin labeled peptide (Anaspec cat #64360), 2 µM alpha-ketoglutaric acid in assay buffer of 50 mM HEPES, pH7.3, 0.005% Brij35, 0.5 mM TCEP, 0.2 mg/ml BSA, 50 µM sodium L-ascorbate, and 2 µM ammonium iron(II) sulfate. Reaction product was determined quantitatively by TR-FRET after the addition of detection reagent Phycolink Streptavidin-allophycocyanin (Prozyme) and Europium-anti-di-methylated histone H3 lysine 9 (H3K9me2) antibody (PerkinElmer) in the presence of 5 mM EDTA in LANCE detection buffer (PerkinElmer) at a final concentration of 50 nM and 1 nM, respectively.
as §2, with “nM H3K9me3-biotin” for “nM H3K4me3-biotin”, “DMSO were” for “DMSO was”, “of 0.9” for “of 2.4”, “nM JMJD2C” for “nM Jarid1B”, “containing 100” for “containing 50”, “nM Europium-anti-H3K9me2” for “nM Europium-anti-H3K4me1-2”

SMILES	IC50 [1] [nM]	IC50 [2] [µM]
COc1ccc2c(c1)CCCC2Cn1cnc(-c2cc(-c3nn[nH]c3C(F)(F)F)ccn2)c1 (stereo not shown) [Example 105, 2-{1-[(6-methoxy-1,2,3,4-tetrahydronaphthalen-1-yl)methyl]-1H-imidazol-4-yl}-4-[5-(trifluoromethyl)-1H-1,2,3-triazol-4-yl]pyridine]	100 to 1000	> 10
CC(c1ccccc1)n1cnc(-c2cc(-c3nn[nH]c3C(F)(F)F)ccn2)c1 (stereo not shown) [Example 73, 2-[1-(1-phenylethyl)-1H-imidazol-4-yl]-4-[5-(trifluoromethyl)-1H-1,2,3-triazol-4-yl]pyridine]	100 to 1000	> 10
O=C(c1ccccc1)N1CCC[C@H](n2cnc(-c3cc(-c4nn[nH]c4C(F)(F)F)ccn3)c2)C1 [Example 90, 2-{1-[(3S)-1-benzoylpiperidin-3-yl]-1H-imidazol-4-yl}-4-[5-(trifluoromethyl)-1H-1,2,3-triazol-4-yl]pyridine]	≤ 100	> 10
FC(F)(F)c1[nH]nnc1-c1ccnc(-c2cn(CC3CCCc4ccccc43)cn2)c1 (stereo not shown) [Example 58, 2-{1-[(1,2,3,4-tetrahydronaphthalen-1-yl)methyl]-1H-imidazol-4-yl}-4-[5-(trifluoromethyl)-1H-1,2,3-triazol-4-yl]pyridine]	≤ 100	> 10
Fc1cc(F)c(CCn2cnc(-c3cc(-c4nn[nH]c4C(F)(F)F)ccn3)c2)cc1F [Example 81, 4-[5-(trifluoromethyl)-1H-1,2,3-triazol-4-yl]-2-{1-[2-(2,4,5-trifluorophenyl)ethyl]-1H-imidazol-4-yl}pyridine]	≤ 100	> 10
FC(F)(F)c1[nH]nnc1-c1ccnc(-c2cn(Cc3ccccc3)cn2)c1 [Example 72, 2-(1-benzyl-1H-imidazol-4-yl)-4-[5-(trifluoromethyl)-1H-1,2,3-triazol-4-yl]pyridine]	100 to 1000	> 10
O=C(c1ccccc1)N1CCC[C@@H](n2cnc(-c3cc(-c4nn[nH]c4C(F)(F)F)ccn3)c2)C1 [Example 89, 2-{1-[(3R)-1-benzoylpiperidin-3-yl]-1H-imidazol-4-yl}-4-[5-(trifluoromethyl)-1H-1,2,3-triazol-4-yl]pyridine]	≤ 100	> 10
CC(C)(C)c1ccc(CCn2cnc(-c3cc(-c4nn[nH]c4C(F)(F)F)ccn3)c2)cc1 [Example 96, 2-{1-[2-(4-tert-butylphenyl)ethyl]-1H-imidazol-4-yl}-4-[5-(trifluoromethyl)-1H-1,2,3-triazol-4-yl]pyridine]	100 to 1000	> 10
Fc1cccc(F)c1CCn1cnc(-c2cc(-c3nn[nH]c3C(F)(F)F)ccn2)c1 [Example 87, 2-{1-[2-(2,6-difluorophenyl)ethyl]-1H-imidazol-4-yl}-4-[5-(trifluoromethyl)-1H-1,2,3-triazol-4-yl]pyridine]	100 to 1000	> 10
Fc1cc(F)c(CCn2cnc(-c3cc(-c4nn[nH]c4C(F)(F)F)ccn3)c2)c(F)c1 [Example 82, 4-[5-(trifluoromethyl)-1H-1,2,3-triazol-4-yl]-2-{1-[2-(2,4,6-trifluorophenyl)ethyl]-1H-imidazol-4-yl}pyridine]	100 to 1000	> 10
FC(F)(F)c1[nH]nnc1-c1ccnc(-c2cn(CCc3ccc(Cl)cc3)cn2)c1 [Example 92, 2-{1-[2-(4-chlorophenyl)ethyl]-1H-imidazol-4-yl}-4-[5-(trifluoromethyl)-1H-1,2,3-triazol-4-yl]pyridine]	100 to 1000	> 10
Cc1cc(F)ccc1Cn1cnc(-c2cc(-c3nn[nH]c3C(F)(F)F)ccn2)c1 [Example 70, 2-{1-[(4-fluoro-2-methylphenyl)methyl]-1H-imidazol-4-yl}-4-[5-(trifluoromethyl)-1H-1,2,3-triazol-4-yl]pyridine]	100 to 1000	> 10
FC(F)(F)c1ccc(CCn2cnc(-c3cc(-c4nn[nH]c4C(F)(F)F)ccn3)c2)cc1 [Example 94, 4-[5-(trifluoromethyl)-1H-1,2,3-triazol-4-yl]-2-(1-{2-[4-(trifluoromethyl)phenyl]ethyl}-1H-imidazol-4-yl)pyridine]	100 to 1000	> 10
FC(F)(F)COc1ccccc1Cn1cnc(-c2cc(-c3nn[nH]c3C(F)(F)F)ccn2)c1 [Example 76, 2-(1-{[2-(2,2,2-trifluoroethoxy)phenyl]methyl}-1H-imidazol-4-yl)-4-[5-(trifluoromethyl)-1H-1,2,3-triazol-4-yl]pyridine]	100 to 1000	> 10
Fc1cccc(CCn2cnc(-c3cc(-c4nn[nH]c4C(F)(F)F)ccn3)c2)c1 [Example 78, 2-{1-[2-(3-fluorophenyl)ethyl]-1H-imidazol-4-yl}-4-[5-(trifluoromethyl)-1H-1,2,3-triazol-4-yl]pyridine]	≤ 100	> 10
CCOc1ccccc1CCn1cnc(-c2cc(-c3nn[nH]c3C(F)(F)F)ccn2)c1 [Example 59]	≤ 100	> 10
CC(C)C(c1ccccc1)n1cnc(-c2cc(-c3nn[nH]c3C(F)(F)F)ccn2)c1 (stereo not shown) [Example 75, 2-[1-(2-methyl-1-phenylpropyl)-1H-imidazol-4-yl]-4-[5-(trifluoromethyl)-1H-1,2,3-triazol-4-yl]pyridine]		> 10
Fc1cccc2c1CCCC2Cn1cnc(-c2cc(-c3nn[nH]c3C(F)(F)F)ccn2)c1 (stereo not shown) [Example 99, 2-{1-[(5-fluoro-1,2,3,4-tetrahydronaphthalen-1-yl)methyl]-1H-imidazol-4-yl}-4-[5-(trifluoromethyl)-1H-1,2,3-triazol-4-yl]pyridine]		> 10
